Values quoted from earlier work, collected in patent publication US20220023237A1, “ADDITIVE AND/OR SYNERGISTIC COMBINATIONS OF METFORMIN WITH NUTRACEUTICALS FOR THE PREVENTION, INHIBITION AND TREATMENT OF SARS-COV-2 AND ASSOCIATED COVID-19” (priority 2020, published 2022).
Read-outs that look alike come from different tables or passages of the source.

Columns and labels:
[1] = tested on: BALB/c mice with LPS-induced ARDS
[2] = tested on: Nrf2 (+/+) primary peritoneal macrophages
[3] = tested on: LPS-challenged macrophages; settings: pre-incubated 6 h, 0 to 50 μM, then LPS 24 h
[4] = tested on: mice challenged with endotoxin or live Escherichia coli; settings: for concentration of IL-1α: controls 1187.0±278.64
[5] = tested on: lipopolysaccharide-induced inflammatory reactions
[6] = tested on: lipopolysaccharide-activated macrophages; settings: electrophoretic mobility shift assay
[7] = tested on: C57BL6 mice; settings: EGCG 10 mg/kg intraperitoneally, 72 h after CL2P
[8] = tested on: mice with experimental colitis
[9] = tested on: rats subjected to myocardial ischemia and reperfusion; settings: EGCG 10 mg/kg intravenously, then 10 mg/kg/h
[10] = tested on: mice with LPS-induced ARDS
[11] = tested on: male Sprague-Dawley rats; settings: EGCG 10 mg/kg intraperitoneally at 1 and 6 h after CL2P and every 12 h
[12] = tested on: mice
[13] = tested on: macrophage foam cells; settings: pretreatment with EGCG

In the case of C[S+]([O-])CCCCN=C=S (stereo not shown) [sulforaphane, 1-isothiocyanato-4-(methylsulfinyl)-butane], the “Nrf2/antioxidant response element (ARE) pathway” value ([1]; pre-treatment) is given as “activated”, the “PGE2 production, COX-2 and MMP-9 protein expression, iNOS activity” value ([1]; sulforaphane 50 mg/kg) is given as “significantly inhibited” and the “LDH activity, wet-to-dry ratio of the lungs, serum IL-6 and TNF-α, nuclear factor-κB protein expression” value ([1]; sulforaphane 50 mg/kg, LPS 5 mg/kg 3 days later) is given as “significantly decreased”. The HO-1 expression ([2]; LPS-stimulated Nrf2 (+/+) macrophages) was “significantly augmented”, the “LPS-stimulated mRNA expression, protein expression and production of TNF-alpha, IL-1beta, COX-2 and iNOS” value ([2]; pretreatment, Nrf2 (+/+) macrophages) was “potently inhibited” and the “expression of NO and cytokines” value [3] was “able to prevent”.

For CC1=CC(=O)C(C(C)C)=CC1=O [thymoquinone], the “concentration of IL-1α” value ([4]; 0.75 mg/kg dose) is given as 310.8 ± 70.93 pg/mL, the IL-10 levels ([4]; 0.75 mg/kg, controls 5505.2 ±333.96) is given as 2885.0 ± 553.98 pg/mL and the “concentration of IL-1α” value ([4]; 1 mg/kg group) is given as 428.3 ± 71.32 pg/mL. The “levels of TNF-α and IL-2” value ([4]; P values=0.1817 and 0.0851) was “relatively lower levels”, the “renal and hepatic biomarker profiles” value ([4]; septic mice) was “improved” and the reduction of mortality ([4]; septic mice, thymoquinone intraperitoneal) was 80-90%. For the same compound, the lipopolysaccharide-induced inflammatory reactions [5] was “suppressed effectively” and the “concentration of nitric oxide” value ([5]; marker of inflammation) was “reduced significantly”.

In the case of Epigallocatechin-3-gallate [EGCG], the “activation of nuclear factor-kappaB” value [6] is given as “blocked”, the survival [7] is given as “significantly improved” and the “disease activity index (DAI) and spleen index (SI)” value ([8]; 50 and 100 mg/kg/day, compared with the MD group) is given as “decreased”. For the same compound, the “HIF-1α and STAT3 protein expression in the colon” value ([8]; mouse, in vivo) was “decreasing”, the “plasma levels of IL-10 and TGF-β1” value ([8]; mouse, in vivo) was “increasing” and the “release of IL-6 and IL-17” value ([8]; plasma) was “reduce”. The “myocardial damage and myeloperoxidase activity” value [9] was “reduced”, the “plasma IL-6 and creatine phosphokinase levels” value [9] was “decreased” and the “expression of IκB-α” value ([10]; EGCG 10 mg/kg ip) was “increased”. For the same compound, the “expression of TLR-4, MyD88, TRIF and p-p65 in the lung tissue” value ([10]; EGCG 10 mg/kg ip) was “alleviated”, the “expression of TNF-α, IL-1β and IL-6 in the lung, serum and bronchoalveolar lavage fluid” value ([10]; EGCG 10 mg/kg ip) was “significantly decreased” and the “expression of p65” value ([10]; EGCG 10 mg/kg ip) was “no influence”. For the same compound, the “LPS-induced ARDS (blood gases, histological lesions, wet-to-dry weight ratios, MPO activity)” value ([10]; EGCG 10 mg/kg ip 1 h before LPS 10 mg/kg ip) was “attenuated”, the hypotension [11] was “significantly improved” and the lethal sepsis ([12]; first dose given 24 hours after cecal ligation and puncture) was “rescued”. The lethal endotoxemia ([12]; intraperitoneal administration) was “protected” and the “TNF-α-induced downregulation of ABCA1 and decrease in cholesterol efflux to apoA1” value [13] was “attenuated”.
